Experimental data from ChEMBL document CHEMBL1201862, “PubChem BioAssay data set” (2004).
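Briefly, cells in 96-well plates were exposed to five compound concentrations for 48 h, and endpoints were estimated by linear interpolation. GI50 marks 50% less growth.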 Activity calls are given as the source filed them. Rule as the data show it: active = GI50 up to about 1.1 µM and inactive = higher.

Experiments:
Assay in all cases: NCI tumour cell line growth inhibition, 48 h
SNB-75 = tested on: SNB-75
HOP-62 = tested on: HOP-62
RXF 393 = tested on: RXF 393
MCF7 = tested on: MCF7
OVCAR-8 = tested on: OVCAR-8
SW-620 = tested on: SW-620
OVCAR-3 = tested on: OVCAR-3
MDA-MB-435 = tested on: MDA-MB-435
K562 = tested on: K562
COLO 205 = tested on: COLO 205
A549 = tested on: A549
SK-MEL-28 = tested on: SK-MEL-28
SR = tested on: SR
HL-60 = tested on: HL-60
786-0 = tested on: 786-0
ACHN = tested on: ACHN
HT-29 = tested on: HT-29
MDA-MB-231 = tested on: MDA-MB-231
BT-549 = tested on: BT-549

SMILES	GI50 (SNB-75)	GI50 (HOP-62)	GI50 (RXF 393)	GI50 (MCF7)	GI50 (OVCAR-8)	GI50 (SW-620)	GI50 (OVCAR-3)	GI50 (MDA-MB-435)	GI50 (K562)	GI50 (COLO 205)	GI50 (A549)	GI50 (SK-MEL-28)	GI50 (SR)	GI50 (HL-60)	GI50 (786-0)	GI50 (ACHN)	GI50 (HT-29)	GI50 (MDA-MB-231)	GI50 (BT-549)
CC1(C)C(C#N)=[N+]([O-])C(C)(C)N1O	> 100 µM (inactive)	> 100 µM (inactive)	> 100 µM (inactive)	79.4 µM (inactive)	> 100 µM (inactive)	72.3 µM (inactive)	> 100 µM (inactive)	37.7 µM (inactive)	> 100 µM (inactive)	> 100 µM (inactive)	> 100 µM (inactive)	> 100 µM (inactive)	> 100 µM (inactive)	26.7 µM (inactive)	> 100 µM (inactive)	> 100 µM (inactive)	> 100 µM (inactive)	> 100 µM (inactive)	
O=C(O)CCc1ccc2c(c1)CC1(Cc3ccccc3C1)C2	< 0.01 µM (active)	> 100 µM (inactive)	> 100 µM (inactive)	> 100 µM (inactive)	> 100 µM (inactive)		> 100 µM (inactive)	> 100 µM (inactive)		78 µM (inactive)	> 100 µM (inactive)		37.9 µM (inactive)		> 100 µM (inactive)	58.5 µM (inactive)	> 100 µM (inactive)	> 100 µM (inactive)	
CC(=O)N(CCc1ccccc1)C(C#N)c1ccc(OCCCCCCCCCCOc2ccc(C(C#N)N(CCc3ccccc3)C(C)=O)cc2)cc1 (configuration not stated)	17.7 µM (inactive)		22.6 µM (inactive)	> 100 µM (inactive)	23 µM (inactive)	> 100 µM (inactive)	> 100 µM (inactive)	> 100 µM (inactive)	> 100 µM (inactive)	> 100 µM (inactive)	> 100 µM (inactive)	> 100 µM (inactive)		> 100 µM (inactive)	16.2 µM (inactive)	66.4 µM (inactive)	> 100 µM (inactive)	15.2 µM (inactive)	33 µM (inactive)
Clc1ccc(Cl)c(/N=N/c2cc3c4c(c2)CCCN4CCC3)c1	> 10 µM (inactive)	> 10 µM (inactive)	> 10 µM (inactive)	> 10 µM (inactive)	> 10 µM (inactive)	> 10 µM (inactive)	> 10 µM (inactive)	> 10 µM (inactive)	> 10 µM (inactive)	> 10 µM (inactive)	> 10 µM (inactive)	> 10 µM (inactive)	> 10 µM (inactive)	5 µM (inactive)	> 10 µM (inactive)	> 10 µM (inactive)	> 10 µM (inactive)	> 10 µM (inactive)	
Nc1ncnc2c1ncn2C1CCC(COS(N)(=O)=O)C1 (configuration not stated)	89.5 µM (inactive)	> 100 µM (inactive)	> 100 µM (inactive)	58.7 µM (inactive)	> 100 µM (inactive)	> 100 µM (inactive)	80.7 µM (inactive)	> 100 µM (inactive)	> 100 µM (inactive)	> 100 µM (inactive)	> 100 µM (inactive)	> 100 µM (inactive)	56.4 µM (inactive)	31.1 µM (inactive)	> 100 µM (inactive)	> 100 µM (inactive)	> 100 µM (inactive)	> 100 µM (inactive)	
c1ccc([P+](CCNCCNCC[P+](c2ccccc2)(c2ccccc2)c2ccccc2)(c2ccccc2)c2ccccc2)cc1	> 100 µM (inactive)	> 100 µM (inactive)	> 100 µM (inactive)	> 100 µM (inactive)	> 100 µM (inactive)	> 100 µM (inactive)	> 100 µM (inactive)	> 100 µM (inactive)		> 100 µM (inactive)	> 100 µM (inactive)	> 100 µM (inactive)			> 100 µM (inactive)	> 100 µM (inactive)	> 100 µM (inactive)	> 100 µM (inactive)	> 100 µM (inactive)
C=CCOC(OCC=C)/C(Br)=C/C	> 100 µM (inactive)	> 100 µM (inactive)	29.2 µM (inactive)	28.3 µM (inactive)	17.7 µM (inactive)	37.5 µM (inactive)	47.1 µM (inactive)	26.9 µM (inactive)	> 100 µM (inactive)	19.2 µM (inactive)	> 100 µM (inactive)	> 100 µM (inactive)	> 100 µM (inactive)	41 µM (inactive)	11.2 µM (inactive)	17.6 µM (inactive)	20.2 µM (inactive)	> 100 µM (inactive)	
CC(=O)Oc1ccc2c(c1)CC[C@@H]1C2[C@@H](O[N+](=O)[O-])C[C@@]2(C)C1CC[C@@H]2O[N+](=O)[O-] (some centres not stated)	13.5 µM (inactive)	6.82 µM (inactive)	11.5 µM (inactive)	9.42 µM (inactive)	14.6 µM (inactive)	16.1 µM (inactive)	13.2 µM (inactive)	15.5 µM (inactive)	6.5 µM (inactive)	16.8 µM (inactive)	13.2 µM (inactive)	14.5 µM (inactive)	5.31 µM (inactive)	16.4 µM (inactive)	14.5 µM (inactive)	8.69 µM (inactive)	16.4 µM (inactive)		17.6 µM (inactive)
Clc1ccc(/C=N/c2ccc(Oc3ccc(Cl)cc3)c(Cl)c2)cc1	22.5 µM (inactive)	19.4 µM (inactive)		30.8 µM (inactive)	29.4 µM (inactive)	31 µM (inactive)	16.9 µM (inactive)	29.7 µM (inactive)		21.6 µM (inactive)	22.3 µM (inactive)	23.6 µM (inactive)		23.3 µM (inactive)	17.9 µM (inactive)	34.1 µM (inactive)	23.7 µM (inactive)	22 µM (inactive)	21.7 µM (inactive)
COc1ccc(-n2c(=O)[nH]n(C(C)=O)c2=O)cc1	> 100 µM (inactive)		> 100 µM (inactive)	> 100 µM (inactive)	> 100 µM (inactive)	> 100 µM (inactive)		> 100 µM (inactive)	> 100 µM (inactive)	> 100 µM (inactive)	> 100 µM (inactive)	> 100 µM (inactive)	> 100 µM (inactive)	> 100 µM (inactive)	> 100 µM (inactive)	> 100 µM (inactive)	> 100 µM (inactive)	> 100 µM (inactive)	
C=C(C)[C@@]1(OC(=O)c2cc([N+](=O)[O-])cc([N+](=O)[O-])c2)C[C@@H]2CCCC[C@@H]21	> 100 µM (inactive)	62.4 µM (inactive)		64 µM (inactive)	> 100 µM (inactive)	> 100 µM (inactive)			> 100 µM (inactive)	39.2 µM (inactive)	39.4 µM (inactive)	> 100 µM (inactive)	> 100 µM (inactive)	95.1 µM (inactive)	> 100 µM (inactive)	> 100 µM (inactive)	47.9 µM (inactive)	> 100 µM (inactive)	> 100 µM (inactive)
O=c1c(F)cn2c(=O)n1CCCCCCCn1c(=O)c(F)cn(c1=O)CCCCCCC2	0.105 µM (active)	46.6 µM (inactive)	39.1 µM (inactive)	> 100 µM (inactive)	59.4 µM (inactive)	> 100 µM (inactive)	61.7 µM (inactive)	64.9 µM (inactive)	> 100 µM (inactive)	> 100 µM (inactive)	> 100 µM (inactive)	3.13 µM (inactive)	39.4 µM (inactive)	49.5 µM (inactive)	40.7 µM (inactive)	> 100 µM (inactive)	50.4 µM (inactive)	34 µM (inactive)	
O=C1OCC(CN2CCC(n3c(=O)[nH]c4ccccc43)CC2)=C1c1ccccc1	28.2 µM (inactive)	28.5 µM (inactive)	34.8 µM (inactive)	28.2 µM (inactive)	17.1 µM (inactive)	34.9 µM (inactive)	24.7 µM (inactive)	25.3 µM (inactive)	14.9 µM (inactive)	14.6 µM (inactive)	30.1 µM (inactive)	23.4 µM (inactive)	30.2 µM (inactive)	15.5 µM (inactive)	33.4 µM (inactive)	29.4 µM (inactive)	19.7 µM (inactive)	26.4 µM (inactive)	
COC(NC(=O)Nc1ccccc1C)(C(F)(F)F)C(F)(F)F	> 100 µM (inactive)	> 100 µM (inactive)	1.21 µM (inactive)	> 100 µM (inactive)	> 100 µM (inactive)	> 100 µM (inactive)	> 100 µM (inactive)	> 100 µM (inactive)	77.1 µM (inactive)	> 100 µM (inactive)	> 100 µM (inactive)	> 100 µM (inactive)	> 100 µM (inactive)	> 100 µM (inactive)	> 100 µM (inactive)	> 100 µM (inactive)	> 100 µM (inactive)		94.4 µM (inactive)
CCOC(=O)[C@@H]1ON2O[C@H](OC3CCCC3(c3ccccc3)c3ccccc3)C[C@H]3OC(=O)[C@@H]1C32 (some centres not stated)	71.4 µM (inactive)	> 100 µM (inactive)	11.1 µM (inactive)	34.4 µM (inactive)	35.3 µM (inactive)	28.2 µM (inactive)	40.9 µM (inactive)	30.1 µM (inactive)	41.2 µM (inactive)	40.6 µM (inactive)	27.8 µM (inactive)		33.7 µM (inactive)	22.2 µM (inactive)	78 µM (inactive)	65.5 µM (inactive)	23.3 µM (inactive)	36.6 µM (inactive)	
C[C@H](N)C(=O)Nc1ccc(-c2nc3ccccc3s2)cc1Cl	16 µM (inactive)	12.3 µM (inactive)	15.1 µM (inactive)		26 µM (inactive)	15.2 µM (inactive)	0.153 µM (active)	13.6 µM (inactive)	17.1 µM (inactive)	12.5 µM (inactive)	13.3 µM (inactive)	14 µM (inactive)	3.8 µM (inactive)		12.5 µM (inactive)	15.4 µM (inactive)	16.7 µM (inactive)		16.3 µM (inactive)
